Experimental data published in US4644012A, “Treatment for osteoporosis” (Takeda Chemical Industries, Ltd., priority 1983, dated 1987).
Ends that are not written are not given here.

How the values were obtained:
[1] = test system: Sprague-Dawley rats; settings: rat, in vivo
Description: (§1) Five-week-old ICR mice and 5-week-old Sprague-Dawley rats were used in groups of 10 males and 10 females, and suspensions of compound A or compound B in olive oil were administered orally [2,500, 5,000 and 10,000 mg/kg of each compound] or subcutaneously [1,250, 2,500 and 5,000 mg/kg]. The animals were kept under observation for 14 days.

[2] = test system: ICR mice; settings: mouse, in vivo
Description: as §1

[3] = test system: rat fetal long bone; test: Bone resorption inhibiting activity in rat fetal long bone culture (45Ca release); type: cell-based, Sprague-Dawley rat; settings: 3 days
Description: Bone resorption inhibiting activity of 7-(1-hydroxycarbonylethyl)oxy-3-phenyl-4H-1-benzopyran-4-one (hereinafter referred to as "compound A") in rat fetal long bone culture
(§2) Determination of bone resorption was performed by the method of Raisz [J. Clin. Invest. 44, 103-116 (1965)]. Thus, a Sprague-Dawley rat on the 19th day of pregnancy was subcutaneously injected with 50μ Ci of ^45 Ca (isotope of calcium, CaCl2 solution), and was laparotomized on the following day. The embryos were aseptically taken out, the forelimbs (radius and ulna) were cut off from the trunk under a binocular dissecting microscope, and the connective tissue and cartilage were removed as much as possible to prepare bone samples. Each bone sample was preincubated at 37° C. for 24 hours in 0.6 ml of the medium containing 2 mg/ml of bovine serum albumin in BGJb medium (Fitton-Jackson modification) [GIBCO Laboratories, Grand Island, N.Y. 14072 U.S.A.]. Then, the sample was further incubated for 3 days in the same medium as above in which 10 μg/ml of compound A had been incorporated. Then, the radioactivity of ^45 Ca in the medium and that of ^45 Ca in the bone were measured and the percentage (%) of ^45 Ca released from the bone into the medium was calculated by the following formula. [formula]
As control, the bones of the embryos from the same litter were similarly incubated in the absence of compound A for 3 days.

[4] = test system: rat fetal long bone; test: Potentiating effect on the bone resorption inhibiting action of calcitonin, PTH-stimulated rat fetal long bone culture (45Ca release); type: cell-based, Sprague-Dawley rat; settings: for potentiation of the inhibitory action of calcitonin on PTH-stimulated bone resorption (in words): calcitonin 3 mU/ml, compound 25 μg/ml
Description: as §2
Potentiating effect of 7-(1-hydroxycarbonylethyl)-oxy-3-(4-hydroxyphenyl)-4H-1-benzopyran-4-one (hereinafter referred to as "compound B") and 7-(1-ethoxycarbonylethyl)-oxy-3-phenyl-4H-1-benzopyran-4-one (hereinafter referred to as "compound C") on the bone resorption inhibiting action of calcitonin in rat fetal long bone culture
The bone samples prepared in the same manner as Test Example 1 were preincubated for 24 hours in the same medium as that prepared in Test Example 1, which contains bovine serum albumin in BGJb medium (Fitton-Jackson modification). Then, in the concomitant presence of PTH (parathyroid hormone, a bone resorption stimulant), calcitonin and compound B or compound C, the samples were further incubated for 3 days and the percentage of ^45 Ca released into the medium was calculated by means of the same formula as that in Test Example 1. […]

| Compound | LD50 [1] | LD50 [2] | suppression of bone resorption (in words) ([3]; 10 μg/ml) | 45Ca (%) released ([3]; compound 10 μg/ml, 37° C, mean ± standard deviation, six bones, control 23.6 ± 3.9, * p < 0.05 vs control) | potentiation of the inhibitory action of calcitonin on PTH-stimulated bone resorption (in words) [4] | 45Ca (%) released ([4]; control II group: PTH + calcitonin 3 mU/ml, no compound, 3 days, PTH alone (control I) 39.7 ± 1.5) |
| --- | --- | --- | --- | --- | --- | --- |
| CC(Oc1ccc2c(=O)c(-c3ccccc3)coc2c1)C(=O)O (stereo not drawn) [compound A, 7-(1-hydroxycarbonylethyl)oxy-3-phenyl-4H-1-benzopyran-4-one] | could not be calculated | could not be calculated | suppressed bone resorption | 18.5 ± 2.2% | – | – |
| CC(Oc1ccc2c(=O)c(-c3ccc(O)cc3)coc2c1)C(=O)O (stereo not drawn) [compound B, 7-(1-hydroxycarbonylethyl)-oxy-3-(4-hydroxyphenyl)-4H-1-benzopyran-4-one] | could not be calculated | could not be calculated | – | – | potentiated the inhibitory action of calcitonin on PTH-stimulated bone resorption | – |
| CCOC(=O)C(C)Oc1ccc2c(=O)c(-c3ccccc3)coc2c1 (stereo not drawn) [compound C, 7-(1-ethoxycarbonylethyl)-oxy-3-phenyl-4H-1-benzopyran-4-one] | – | – | – | – | potentiated the inhibitory action of calcitonin on PTH-stimulated bone resorption | – |
| calcitonin: calcitonin, bone resorption inhibitor used with PTH in control II group (CGNLSTCMLGTYTQDFNKFHTFPQTAIGVGAP; ends and bridges not checked; cysteine pairing not given here; UniProt P01258 85-116, looked up) [reference compound] | – | – | – | – | – | 35.9 ± 4.9% |
